Legend:
[1] = system: Human promyelocytic leukemia cells (HL-60); assay: Induced differentiation of HL-60 cells (NBT reduction); assay type: cell-based; conditions: 0.1 μg/ml (10×10^−7 g/ml)
Procedure: (§1) Human promyelocytic leukemia cells (HL-60) were grown in RPMI Medium 1640 supplemented with 10% (v/v) heat-inactivated FBS (56° C. for 30 min) at 37° C. in a humidified 95% air/5% CO2 atmosphere. Cells were seeded at a level of 2×10^5 cells/ml. Cells were allowed to attain a maximum density of 1.2×10^6 cells/ml before being passed by dilution into fresh medium to a concentration of 2×10^5 cells/ml. Differentiation was induced in HL-60 cells by treatment with 0.1 μg/ml ([…]) of CUR or PK-CUR-NP. Cell differentiation was measured by the ability of cells to reduce NBT.
as §1, with “ELE” for “CUR”, “PK-ELE-NP.” for “PK-CUR-NP.”, “NBT. Increasing NBT % means that cancer cells are differentiation.” for “NBT.”
as §1, with “CPT” for “CUR”, “PK-CPT-NP.” for “PK-CUR-NP.”, “NBT. Increasing NBT % means that cancer cells are differentiation.” for “NBT.”

HL-60 = assay: Inhibition of tumor cell proliferation, HL-60; assay type: cell-based, human; conditions: for Inhibition (%): 72 hours
Procedure: Human leukemia cells (HL-60) were grown in RPMI Medium 1640 supplemented with 10% (v/v) heat-inactivated FBS (56° C. for 30 min) at 37° C. in a humidified 95% air/5% CO2 atmosphere. Cells were seeded at a level of 2×10^5 cells/ml. Cells were allowed to attain a maximum density of 1.2×10^6 cells/ml before being passed by dilution into fresh medium to a concentration of 2×10^5 cells/ml.
Cell lines were routinely cultured in the RPMI1640 medium supplemented 20% fetal calf serum. The experiment was carried out in 96 microplate, each well had 5×10^5 cells and given desired concentration of drug (1 μg/ml). Then the plate was incubated at 37° C. in an atmosphere of humidified air enriched with 5 percent carbon dioxide for 72 hours. Inhibition percent rate of tumor cell proliferation was obtained according to the bellow formula. [formula]
Human tumor cell lines: Hela leukemia HL-60, malignant melanocarcinoma B16, oral epidermoid carcinoma (KB), lung carcinoma (A549), breast carcinoma MCF-7, adenocarcinoma of stomach.
Animal tumor cell lines: Walker carcinoma, LLC-WRC-256, malignant melanoma (RMMI 1846), 3T3, and S-180 sarcoma (CCRF-180). All lines were routinely cultured in the RPMI1640 medium supplemented 20% fetal calf serum. The experiment was carried out in 96 microplate, each well had 5×10^5 cells and given desired concentration of 1 μg/ml (1×10^−6 g/ml) drug. Then the plate was incubated at 37° C. in an atmosphere of humidified air enriched with 5 percent carbon dioxide for 72 hours.
Inhibition percent rate of tumor cell proliferation was obtained according to the bellow formula. [formula] […]

Lewis = assay: Growth of transplanted tumor, Lewis (tumor weight); assay type: in vivo, mice; conditions: 20 mg/kg i.p. from second day, tumor weight on 12th day
Procedure: Male mice, weight 20-22 g, were used in the experiment. 1×10^7 tumor cells were injected to mouse and PK-HHT-NP injected intraperitoneally began second day. All mice were sacrificed on the 12th days, isolated the tumor and weighed and calculated the inhibition rate of tumor weight.
Male mice, weight 20-22 g, were used in the experiment. 1×10^7 tumor cells were injected to mouse and CUR and PK-CUR-NP injected intraperitoneally began second day. All mice were sacrificed on the 12th days, isolated the tumor and weighed and calculated the inhibition rate of tumor weight.
Male mice, weight 20-22 g, were used in the experiment. 1×10^7 tumor cells were injected to mouse and ELE injected intraperitoneally began second day. All mice were sacrificed on the 12th days, isolated the tumor and weighed and calculated the inhibition rate of tumor weight.
Male mice, weight 20-22 g, were used in the experiment. 1×10^7 tumor cells were injected to mouse and CPT injected intraperitoneally began second day. All mice were sacrificed on the 12th days, isolated the tumor and weighed and calculated the inhibition rate of tumor weight.

[2] = mice, I.P. (injection in abdominal cavity)

Row | Compound | NBT % (percentage of cells capable of reducing NBT) [1] [%] | inhibition at 0.05 µg/mL (HL-60; Homo sapiens, HL-60, 72 h, 50 ng/ml) [%] | Inhibition (%) of transplanted tumor (Lewis) [%] | LD50 (Acute toxicity LD50; mouse, in vivo, ip) [mg/kg] | Inhibition (%) (HL-60; 50 ng/ml) | LD50 (Acute toxicity LD50; [2]) [mg/kg] | inhibition at 1 µg/mL (HL-60; Homo sapiens, HL-60, 72 h, 1 μg/ml) [%] | inhibition at 1 µg/mL (HL-60; Homo sapiens, HL-60, 72 h, Example 23, 1 μg/ml, NP dose equivalent of free HHT) [%]
1 | CC[C@@]1(O)C(=O)OCc2c1cc1n(c2=O)Cc2cc3ccccc3nc2-1 [CPT, Camptothecin] | 65.8 ± 9.1 | 70.8 ± 11.2 | 60.8 ± 10.4 | 76 |  |  |  | 
2 | C=C1C[C@@]2(O)O[C@@]3(C[C@H]2C(C)C)[C@@H](C)CC[C@@H]13 [CUR, Curcumol] | 68.5 ± 8.5 |  | 68.9 ± 7.8 |  | 76.8 ± 12.8 | 325 |  | 
3 | COC(=O)C[C@](O)(CCCC(C)(C)O)C(=O)O[C@@H]1C(OC)=C[C@]23CCCN2CCc2cc4c(cc2[C@H]13)OCO4 [HHT, Homoharringtonine] |  |  | 70 ± 6 | 3.3 ± 0.29 |  |  | 70.8 ± 9 | 70.5 ± 8
4 | Eelemene | 69.5 ± 10.1 |  | 65.8 ± 10.5 |  | 78.9 ± 12.5 | 318 |  | 
